Assay [1] has as its target T1, gelatinase derived from HGF cells (Homo sapiens, UniProt P08253).
T1 construct: endogenous in cells; host or cells: human gingiva fibroblasts (HGF), serum-free conditioned medium; purified on gelatin Sepharose 4B
T1 sequence (P08253 110-660): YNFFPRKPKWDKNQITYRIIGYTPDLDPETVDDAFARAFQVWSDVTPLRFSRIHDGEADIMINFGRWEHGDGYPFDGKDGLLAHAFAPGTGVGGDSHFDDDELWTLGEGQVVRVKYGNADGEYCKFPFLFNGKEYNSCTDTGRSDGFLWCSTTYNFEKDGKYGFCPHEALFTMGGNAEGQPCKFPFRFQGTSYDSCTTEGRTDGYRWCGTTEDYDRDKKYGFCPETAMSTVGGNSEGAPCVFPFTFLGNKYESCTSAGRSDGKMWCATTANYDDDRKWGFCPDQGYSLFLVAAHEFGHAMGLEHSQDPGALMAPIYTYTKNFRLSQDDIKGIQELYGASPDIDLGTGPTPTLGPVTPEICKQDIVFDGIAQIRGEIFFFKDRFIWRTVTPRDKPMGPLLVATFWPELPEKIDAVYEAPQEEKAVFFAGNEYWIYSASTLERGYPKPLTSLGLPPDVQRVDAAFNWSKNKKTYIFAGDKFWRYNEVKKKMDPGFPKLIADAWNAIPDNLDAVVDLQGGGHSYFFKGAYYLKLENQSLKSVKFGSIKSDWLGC
The experiment in a line: Inhibitory effect on gelatinase derived from HGF cells (FITC-labelled type IV collagen). Format: biochemical. The settings on record: 42° C; read-out: 50% inhibiting concentration, Gelatinase HGF (converted).
Experimental: The measurement method was the same as the above method for measuring the inhibitory activity on the collagenase (2-1). However, the reaction temperature was set at 42° C. The measurement was also carried out on tetracycline by the same method.

In assay [2] the target is T2, collagenase derived from human gingiva fibroblasts (HGF cell) (Homo sapiens, UniProt P03956).
T2 construct: endogenous in cells; host or cells: human gingiva fibroblasts (HGF), serum-free conditioned medium; purified on CM Sepharose and zinc chelating Sepharose
T2 sequence (P03956 100-469): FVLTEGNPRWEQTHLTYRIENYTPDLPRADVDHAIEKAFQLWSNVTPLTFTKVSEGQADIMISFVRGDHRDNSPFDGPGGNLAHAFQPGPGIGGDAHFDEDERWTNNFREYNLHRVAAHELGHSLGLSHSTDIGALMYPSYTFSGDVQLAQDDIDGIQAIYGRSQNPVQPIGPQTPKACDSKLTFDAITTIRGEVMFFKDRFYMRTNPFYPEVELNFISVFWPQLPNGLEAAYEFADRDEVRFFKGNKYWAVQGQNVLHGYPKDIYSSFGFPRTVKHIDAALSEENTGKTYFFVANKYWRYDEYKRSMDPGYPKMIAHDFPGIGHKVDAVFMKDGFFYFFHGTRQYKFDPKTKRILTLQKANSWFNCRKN
The experiment in a line: Inhibitory effect on collagenase derived from HGF cells (FITC-labelled type I collagen, method of Nagai et al.). The assay is classed as biochemical. As to conditions: 37° C, 4 hours; control free of test substance = 100%; read-out: 50% inhibiting concentration, Collagenase HGF (converted).
Experimental: The collagenase derived from human gingiva fibroblasts (hereinafter abbreviated as “HGF cell”) for use in this test was prepared in the following manner: human procollagenase which was produced in Dulbecco modification MEM culture medium of non-blood serum using the HGF cells was refined using CM Sepharose™ (manufactured by Pharmacia Company) and zinc chelating Sepharose™ (manufactured by Pharmacia Company). The resulting substance was dissolved in a buffer solution and then was activated. The activation was carried out by incubating using aminophenyl acetic acid mercury (manufactured by Sigma Co.) as an activator at 37° C. for 4 hours.
The measurement of the inhibitory effects on collagenase of the extract containing the natural polyphenol of the above 1-1 was conducted by determining the collagenase activity of the extract. […] Specifically, 40 μl of activated human collagenase (2U/ml), 50 μg of the matrix and a test substance which was dissolved in 40 μl of an assay buffer were mixed. The mixture was allowed to react at 37° C for 4 hours. The collagenase activity of the control (free of the test substance) was regarded as 100%.

In a further assay the test system is HGF cells and HGK cells. As to conditions: of the medium with no nicotine added; 0.05% nicotine. As for the experimental part:
HGF cells and HGK cells were inoculated into separate 96-well plates for tissue culture in an amount of 5,000 cells/well. These HGF cells and HGK cells were incubated at 37° C. for 1 day. Then, the incubated HGF cells were diluted in a Dulbecco modification MEM culture medium containing the test substance, 0.05% nicotine and 1% fetal bovine serum, while the incubated HGK cells were diluted in a culture medium for epithelium containing the test substance, 0.05% nicotine and 1% fetal bovine serum. The cells were incubated on the media for 5 days, and the cell proliferation activities of the cells were observed. Meanwhile, as a control was used the culture medium to which only nicotine was added. After the test substances were cultivated for 5 days, the cells were fixed in a 10% formalin solution and staining in crystal violet. The absorbance of the resulting cells at 590 nm was determined to calculate the population of the cells. The relative proportion of the test substances when the value of the control (culture medium to which only nicotine was added) was 100% was obtained.

The subject of assay [3] is collagenase production by human gingiva fibroblasts and human gingival epithelium cells. As to conditions: of the medium with no nicotine added; 0.05% nicotine. As for the experimental part:
Measurements were carried out by the method described in Test Example 2. However, to the culture medium was added 0.05% nicotine, together with the test substance and 1% fetal bovine serum. The collagenase activity of the culture medium supernatant of the control (the culture medium containing only nicotine) was regarded as 100%, and the relative proportion of the collagenase activity when the test substances were added was determined.

Consider `CN(C)[C@@H]1C(O)=C(C(N)=O)C(=O)[C@@]2(O)C(O)=C3C(=O)c4c(O)cccc4[C@@](C)(O)[C@H]3C[C@@H]12` [Tetracycline], for which the IC50 in assay [1] was 19.6 µM; in assay [2] it was 5.63 µM.

As for `CN1CCCC1c1cccnc1` (stereo not shown) [nicotine], in the assay with HGF cells and HGK cells, the “reduction of cell proliferation by addition of nicotine” value amounted to 52%. Also, the “increase rate of collagenase production by addition of nicotine” value in assay [3] is recorded as 380%.

The record behind these values is patent US6814958B1, “Food compositions, compositions for oral cavity and medicinal compositions for preventing or treating periodontosis and method for preventing or treating periodontosis” (priority 1998, dated 2004).
